The values that follow are results of earlier work, collected in patent US20210330638A1, “NANO-PENETRATIVE CANNABINOID OIL BLENDS AND COMPOSITIONS AND METHODS OF FORMULATION THEREOF” (Theragun, Inc., priority 2020, published 2021).

Each structure is given as a SMILES string.

The conditions of this series: in vivo.

For the compound `CC1=CCC2CC1C2(C)C` (stereo not drawn) [a-Pinene, alpha-pinene], the pulmonary uptake is listed as 60%.
